Earlier results on one compound are cited in patent US20050121026A1, “Method for administration of tiotropium” (priority 2003, published 2005).

For the data set the following is noted: bronchodilator, background statement.

SMILES strings stand for the structures.

With `C[N+]1(C)[C@@H]2C[C@@H](OC(=O)C(O)(c3cccs3)c3cccs3)C[C@H]1[C@@H]1O[C@@H]12` [tiotropium bromide], the “Duration of action (may be active for up to)” value is reported as “up to 24 hours”.
